Assay results from PubChem BioAssay AID2060335 (Molecular Pharmacology Branch, DTP, NCI, 2025).
Where “and” joins values, the source holds several entries; their conditions need not be identical. Equal entries are not always repeated.

Tested on: DU-145 multicell spheroids with HUVEC/MSC, viability
Test: Anticancer human tumor DU-145 cell line growth inhibition [IpAb];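 note: spheroids exposed to agents for seven days before measurement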;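 for viability, T/C: percent of DMSO vehicle control viability so 100% = untreated level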
Conditions: for viability, T/C: stronger effect = lower value
From the text: Combinatorial screen of targeted agents with ipatasertib and abemaciclib in multi-cell type tumor spheroids
A high-throughput screen of multi-cell type tumor spheroids was designed to identify active combinations of targeted small molecules and ipatasertib or abemaciclib. Complex spheroids include a stromal component modeled by human endothelial cells (HUVEC) and fibroblasts modeled by human mesenchymal stem cells (MSCs). The concentration ranges selected for each drug and investigational agent were based upon clinically achievable concentrations if the clinical Cmax of the agent was known.
Compounds. The drugs and investigational agents: ipatasertib (NSC767898), abemaciclib(NSC768073), selumetinib (NSC741078), trametinib (758246), adavosertib (NSC754352), everolimus (NSC733504), sapanisertib (NSC764658), vemurafenib (NSC761431), venetoclax (NSC766270), copanlisib (NSC809693), apelisib (NSC765974), palbociblib (NSC758247), vemurafenib (NSC761431), dabrafenib (NSC764134), ravoxertinib (NSC781343), BMS-387032 (NSC767048), sotorasib (NSC818433), talazoparib (NSC767125) and afursertib (NSC778305), were obtained from the National Cancer Institute (NCI) Developmental Therapeutics Program Chemical Repository. The FDA-approved anticancer drug set is available from the NCI Developmental Therapeutics Program. […] The stock solutions were prepared in dimethyl sulfoxide (DMSO, Sigma-Aldrich, St. Louis, MO, cat. D2650) at 800-fold the tested concentration and stored at -70 degrees C prior to their use. All drugs and investigational agents were tested over a range starting from a high concentration at or near the clinical Cmax and decreasing in half-log increments. If the clinical Cmax for an agent had not been determined, the highest concentration tested was 10 microM.
NCI60 Cell Culture. NCI60 cell lines were obtained from the NCI Developmental Therapeutics Program Tumor Repository. For each lot of cells, the Repository performed Applied Biosystems AmpFLSTR Identifiler testing with PCR amplification to confirm consistency with the published Identifier STR profile for each cell line. Cells were kept in continuous culture for no more than 20 passages. The optimal seeding densities for each of the cell lines at each time point assessed were determined prior to performing the concentration response studies. Briefly, the NCI60 human tumor lines were grown as monolayers in RPMI 1640 medium supplemented with 10% FBS and 2 mmol/L L-glutamine.
An additional 9 lines were from the NCI60 cell line panel including MDA-MB-231 breast carcinoma, MDA-MB-468 breast carcinoma, MCF7 breast carcinoma, Hs578T breast carcinoma, MALME-3M melanoma, SK-MEL-2 melanoma, SK-OV-3 ovarian carcinoma, DU-145 prostate carcinoma, PC-3 prostate carcinoma, all cell lines along with major genetic alterations are listed on Table 2. Pooled donor human umbilical vein endothelial cells (HUVEC, Lonza, cat. CC-2519) and human mesenchymal stem cells (hMSC, Lonza, cat. PT-2501) were purchased from Lonza (Walkersville, MD).
PDMR cell lines were grown in complete medium (DC medium): Dulbecco's modified Eagle's medium (DMEM)/F12 supplemented with 5% fetal bovine serum (FBS), 2 mM L-glutamine, 100 U/mL penicillin and 100 µg/ml streptomycin, 0.4 µg/ml hydrocortisone, 10 ng/ml epidermal growth factor (EGF) recombinant human protein, 24 µg/mL adenine, and 0.1 mg/mL primocin. During culture from frozen stock vials, PDMR cells were cultured in the same medium containing 10 µM Y-27632 (see Table 3). The PDCs were cultured in complete DMEM/F12 media without 10 microM Y-27632 dihydrochloride for at least two passages prior to the screen. The pooled donor HUVEC and hMSC were cultured in endothelial cell growth medium 2 (PromoCell, Heidelberg, Germany, cat. C-22011) and mesenchymal stem cell growth medium 2 (PromoCell, cat. C-28009), respectively. For all experiments, HUVEC and hMSC were used at passages </=5.
[…]

[1] = curve of first compound, second compound 0.1 µM
[2] = curve of first compound, second compound 0.316 µM
[3] = curve of first compound, second compound 1 µM
[4] = curve of first compound, second compound 3.16 µM
[5] = curve of first compound, second compound 10 µM
[6] = second compound 0.1 µM, first compound 0.000316 µM
[7] = second compound 0.1 µM, first compound 0.001 µM
[8] = second compound 0.1 µM, first compound 0.00316 µM
[9] = second compound 0.1 µM, first compound 0.01 µM
[10] = second compound 0.1 µM, first compound 0.0316 µM
[11] = second compound 0.1 µM, first compound 0.1 µM
[12] = second compound 0.316 µM, first compound 0.000316 µM
[13] = second compound 0.316 µM, first compound 0.001 µM
[14] = second compound 0.316 µM, first compound 0.00316 µM
[15] = second compound 0.316 µM, first compound 0.01 µM
[16] = second compound 0.316 µM, first compound 0.0316 µM
[17] = second compound 0.316 µM, first compound 0.1 µM
[18] = second compound 1 µM, first compound 0.000316 µM
[19] = second compound 1 µM, first compound 0.001 µM
[20] = second compound 1 µM, first compound 0.00316 µM
[21] = second compound 1 µM, first compound 0.01 µM
[22] = second compound 1 µM, first compound 0.0316 µM
[23] = second compound 1 µM, first compound 0.1 µM
[24] = second compound 3.16 µM, first compound 0.000316 µM
[25] = second compound 3.16 µM, first compound 0.001 µM
[26] = second compound 3.16 µM, first compound 0.00316 µM
[27] = second compound 3.16 µM, first compound 0.01 µM
[28] = second compound 3.16 µM, first compound 0.0316 µM
[29] = second compound 3.16 µM, first compound 0.1 µM
[30] = second compound 10 µM, first compound 0.000316 µM
[31] = second compound 10 µM, first compound 0.001 µM
[32] = second compound 10 µM, first compound 0.00316 µM
[33] = second compound 10 µM, first compound 0.01 µM
[34] = second compound 10 µM, first compound 0.0316 µM
[35] = second compound 10 µM, first compound 0.1 µM

## Cn1ncnc1[C@H]1c2n[nH]c(=O)c3cc(F)cc(c23)N[C@@H]1c1ccc(F)cc1 + CC(C)NCC(C(=O)N1CCN(c2ncnc3c2C(C)CC3O)CC1)c1ccc(Cl)cc1
[1]
  IC50: > 100 nM
[2]
  IC50: 46.1 nM
[3]
  IC50: < 0.316 nM
[4]
  IC50: < 0.316 nM
[5]
  IC50: < 0.316 nM
[6]
  viability, T/C: 85.8%
[7]
  viability, T/C: 81.1%
[8]
  viability, T/C: 83.2%
[9]
  viability, T/C: 82.1%
[10]
  viability, T/C: 77.9%
[11]
  viability, T/C: 73.4%
[12]
  viability, T/C: 56%
[13]
  viability, T/C: 57.8%
[14]
  viability, T/C: 51.9%
[15]
  viability, T/C: 53.8%
[16]
  viability, T/C: 51.8%
[17]
  viability, T/C: 47.1%
[18]
  viability, T/C: 34.4%
[19]
  viability, T/C: 36.3%
[20]
  viability, T/C: 33.5%
[21]
  viability, T/C: 33%
[22]
  viability, T/C: 34.3%
[23]
  viability, T/C: 33.6%
[24]
  viability, T/C: 24%
[25]
  viability, T/C: 24.8%
[26]
  viability, T/C: 23.9%
[27]
  viability, T/C: 21.9%
[28]
  viability, T/C: 24.5%
[29]
  viability, T/C: 23.3%
[30]
  viability, T/C: 17.7%
[31]
  viability, T/C: 20.1%
[32]
  viability, T/C: 19.6%
[33]
  viability, T/C: 19.1%
[34]
  viability, T/C: 18.1%
[35]
  viability, T/C: 19.5%

## COc1c(OCCCN2CCOCC2)ccc2c3n(c(=NC(=O)c4cnc(N)nc4)nc12)CCN3 + CC(C)NCC(C(=O)N1CCN(c2ncnc3c2C(C)CC3O)CC1)c1ccc(Cl)cc1
[1]
  IC50: 6.79 nM
[2]
  IC50: < 3.16 nM
[3]
  IC50: < 3.16 nM
[4]
  IC50: < 3.16 nM
[5]
  IC50: < 3.16 nM
[8]
  viability, T/C: 65.3%
[9]
  viability, T/C: 41.2%
[10]
  viability, T/C: 27.6%
[11]
  viability, T/C: 12.7%
Second compound 0.1 µM, first compound 0.316 µM
  viability, T/C: 9.75%
Second compound 0.1 µM, first compound 1 µM
  viability, T/C: 10.5%
[14]
  viability, T/C: 41.5%
[15]
  viability, T/C: 28.2%
[16]
  viability, T/C: 18.8%
[17]
  viability, T/C: 11.6%
Second compound 0.316 µM, first compound 0.316 µM
  viability, T/C: 9.1%
Second compound 0.316 µM, first compound 1 µM
  viability, T/C: 11.2%
[20]
  viability, T/C: 25.4%
[21]
  viability, T/C: 22%
[22]
  viability, T/C: 14.8%
[23]
  viability, T/C: 10%
Second compound 1 µM, first compound 0.316 µM
  viability, T/C: 8.83%
Second compound 1 µM, first compound 1 µM
  viability, T/C: 10.2%
[26]
  viability, T/C: 18.7%
[27]
  viability, T/C: 14.6%
[28]
  viability, T/C: 12.1%
[29]
  viability, T/C: 9.46%
Second compound 3.16 µM, first compound 0.316 µM
  viability, T/C: 8.26%
Second compound 3.16 µM, first compound 1 µM
  viability, T/C: 9.07%
[32]
  viability, T/C: 14.6%
[33]
  viability, T/C: 12.5%
[34]
  viability, T/C: 10.5%
[35]
  viability, T/C: 8.52%
Second compound 10 µM, first compound 0.316 µM
  viability, T/C: 7.9%
Second compound 10 µM, first compound 1 µM
  viability, T/C: 9.09%

## Cn1ncnc1[C@H]1c2n[nH]c(=O)c3cc(F)cc(c23)N[C@@H]1c1ccc(F)cc1
Compound 0.000316 µM
  viability, T/C: 109% and 101%
Compound 0.001 µM
  viability, T/C: 105% and 99.7%
Compound 0.00316 µM
  viability, T/C: 97.9% and 92.2%
Compound 0.01 µM
  viability, T/C: 99.3% and 96.5%
Compound 0.0316 µM
  viability, T/C: 95.1% and 97.6%
Compound 0.1 µM
  viability, T/C: 92.9% and 80.5%
Curve of compound
  IC50: > 100 nM

## CC(C)n1nc(-c2ccc3oc(N)nc3c2)c2c(N)ncnc21 + CC(C)NCC(C(=O)N1CCN(c2ncnc3c2C(C)CC3O)CC1)c1ccc(Cl)cc1
[1]
  IC50: 0.905 nM
[2]
  IC50: < 0.316 nM
[3]
  IC50: < 0.316 nM
[4]
  IC50: < 0.316 nM
[5]
  IC50: < 0.316 nM
[6]
  viability, T/C: 64.2%
[7]
  viability, T/C: 48.1%
[8]
  viability, T/C: 32.4%
[9]
  viability, T/C: 18.1%
[10]
  viability, T/C: 12.2%
[11]
  viability, T/C: 9.34%
[12]
  viability, T/C: 49.2%
[13]
  viability, T/C: 32.3%
[14]
  viability, T/C: 22.9%
[15]
  viability, T/C: 13.5%
[16]
  viability, T/C: 9.74%
[17]
  viability, T/C: 7.89%
[18]
  viability, T/C: 29%
[19]
  viability, T/C: 23.1%
[20]
  viability, T/C: 14%
[21]
  viability, T/C: 8.57%
[22]
  viability, T/C: 7.4%
[23]
  viability, T/C: 6.44%
[24]
  viability, T/C: 18.6%
[25]
  viability, T/C: 14.2%
[26]
  viability, T/C: 9.92%
[27]
  viability, T/C: 6.7%
[28]
  viability, T/C: 6.17%
[29]
  viability, T/C: 5.92%
[30]
  viability, T/C: 14.1%
[31]
  viability, T/C: 14.2%
[32]
  viability, T/C: 7.9%
[33]
  viability, T/C: 6.04%
[34]
  viability, T/C: 5.82%
[35]
  viability, T/C: 5.09%
